What was measured:
[1] = molecular target: GDP-bound KRAS wild-type protein (Homo sapiens, UniProt P01116); test: Binding to KRAS by surface plasmon resonance (SPR), Single Cycle Kinetics; settings: SPR, Single Cycle Kinetics, GDP-bound KRAS wild-type protein; read-out: KRAS KD
[2] = molecular target: GDP-bound NRAS wild-type protein (Homo sapiens, UniProt P01111); test: Binding to NRAS by surface plasmon resonance (SPR), Single Cycle Kinetics; settings: ratio of KD for GDP-bound NRAS wild-type protein to KD for KRAS, SPR
Chain of GDP-bound NRAS wild-type protein (P01111 whole entry): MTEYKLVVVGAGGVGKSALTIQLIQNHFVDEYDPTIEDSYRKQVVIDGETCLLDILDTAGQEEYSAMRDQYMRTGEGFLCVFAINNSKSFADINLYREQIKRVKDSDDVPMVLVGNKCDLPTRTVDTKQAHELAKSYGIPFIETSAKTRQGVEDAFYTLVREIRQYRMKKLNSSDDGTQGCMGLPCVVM

[3] = molecular target: GDP-bound HRAS wild-type protein (Homo sapiens, UniProt P01112); test: Binding to HRAS by surface plasmon resonance (SPR), Single Cycle Kinetics; settings: ratio of KD for GDP-bound HRAS wild-type protein to KD for KRAS, SPR
Chain of GDP-bound HRAS wild-type protein (P01112 whole entry): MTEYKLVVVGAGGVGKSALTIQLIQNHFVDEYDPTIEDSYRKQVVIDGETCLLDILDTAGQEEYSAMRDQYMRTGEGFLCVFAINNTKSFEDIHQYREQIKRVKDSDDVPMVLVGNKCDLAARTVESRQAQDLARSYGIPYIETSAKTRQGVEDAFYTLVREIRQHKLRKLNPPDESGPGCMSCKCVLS

[4] = test system: human lung cancer strain NCI-H441; test: cells; settings: NCI-H441, 96 h, read-out: NCI-H441 IC50 (nM), NCI-H441 cell proliferation, 4 days, CellTiter-Glo;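 note: cell proliferation inhibition after four days measured by CellTiter-Glo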

Chain of GDP-bound KRAS wild-type protein (P01116 whole entry): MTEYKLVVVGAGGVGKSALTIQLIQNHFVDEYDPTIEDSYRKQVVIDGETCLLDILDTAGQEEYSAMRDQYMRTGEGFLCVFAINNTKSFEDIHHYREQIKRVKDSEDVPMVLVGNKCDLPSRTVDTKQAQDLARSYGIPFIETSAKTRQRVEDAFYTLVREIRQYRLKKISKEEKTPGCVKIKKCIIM

Row | SMILES | Kd [1] [nM] | NRAS/KRAS (KD ratio) [2] | HRAS/KRAS (KD ratio) [3] | IC50 [4] [nM]
1 | CCCN(C)C(=O)[C@@H]1CC(=O)N(C)[C@@H](COC)C(=O)N[C@@H]([C@@H](C)CC)C(=O)N(C)CC(=O)N(C)[C@H]2C/C=C\CCN(C2=O)[C@@H](Cc2ccc(C(F)(F)F)cc2)C(=O)N(C)CC(=O)N[C@@H](CCc2cc(F)c(C(F)(F)F)c(F)c2)C(=O)N2C[C@H](F)C[C@H]2C(=O)NC2(CC(C)(C)C2)C(=O)N(C)[C@@H](C2CCCC2)C(=O)N1C [PP1696] | 0.041 | AA (a compound having 20 or more is denoted as AA) | A (a compound having 10 or more and less than 20 is denoted as A) | 2.9
2 | CCCOC[C@H]1C(=O)N[C@@H]([C@@H](C)CC)C(=O)N(C)CC(=O)N(C)[C@H]2C/C=C\CCN(C2=O)[C@@H](Cc2ccc(C(F)(F)F)cc2)C(=O)N(C)CC(=O)N[C@@H](CCc2cc(F)c(C(F)(F)F)c(F)c2)C(=O)N2C[C@H](F)C[C@H]2C(=O)NC2(CC(C)(C)C2)C(=O)N(C)[C@@H](C2CCCC2)C(=O)N(C)[C@H](C(=O)N(C)CC)CC(=O)N1C [PP1697] | 0.047 | A (a compound having 10 or more and less than 20 is denoted as A) | A (a compound having 10 or more and less than 20 is denoted as A) | 3.6
3 | CCCOC[C@H]1C(=O)N[C@@H]([C@@H](C)CC)C(=O)N(C)CC(=O)N(C)[C@H]2C/C=C\CCN(C2=O)[C@@H](Cc2ccc(C(F)(F)F)cc2)C(=O)N(C)CC(=O)N[C@@H](CCc2cc(F)c(C(F)(F)F)c(F)c2)C(=O)N2C[C@H](F)C[C@H]2C(=O)NC2(CC(C)(C)C2)C(=O)N(C)[C@@H](C2CCCC2)C(=O)N(C)[C@H](C(=O)N(C)CCC)CC(=O)N1C [PP1698] | 0.075 | A (a compound having 10 or more and less than 20 is denoted as A) | A (a compound having 10 or more and less than 20 is denoted as A) | 5.1
4 | CCCN(C)C(=O)[C@@H]1CC(=O)N(C)[C@@H](CC)C(=O)N[C@@H]([C@@H](C)CC)C(=O)N(C)CC(=O)N(C)[C@H]2C/C=C\CCN(C2=O)[C@@H](Cc2ccc(C(F)(F)F)cc2)C(=O)N(C)CC(=O)N[C@@H](CCc2cc(F)c(C(F)(F)F)c(F)c2)C(=O)N2C[C@H](OCC)C[C@H]2C(=O)NC2(CCC2)C(=O)N(C)[C@@H](C2CCCC2)C(=O)N1C [PP1699] | 0.095 | A (a compound having 10 or more and less than 20 is denoted as A) | A (a compound having 10 or more and less than 20 is denoted as A) | 2.5
5 | CCCN(C)C(=O)[C@@H]1CC(=O)N(C)[C@@H](CC(F)F)C(=O)N[C@@H]([C@@H](C)CC)C(=O)N(C)CC(=O)N(C)[C@H]2C/C=C\CCN(C2=O)[C@@H](Cc2ccc(C(F)(F)F)cc2)C(=O)N(C)CC(=O)N[C@@H](CCc2cc(F)c(C(F)(F)F)c(F)c2)C(=O)N2C[C@H](OCC)C[C@H]2C(=O)NC2(CCC2)C(=O)N(C)[C@@H](C2CCCC2)C(=O)N1C [PP1700] | 0.11 | A (a compound having 10 or more and less than 20 is denoted as A) | A (a compound having 10 or more and less than 20 is denoted as A) | 3.6
6 | CCCN(C)C(=O)[C@@H]1CC(=O)N(C)[C@@H](CC(F)(F)F)C(=O)N[C@@H]([C@@H](C)CC)C(=O)N(C)CC(=O)N(C)[C@H]2C/C=C\CCN(C2=O)[C@@H](Cc2ccc(C(F)(F)F)cc2)C(=O)N(C)CC(=O)N[C@@H](CCc2cc(F)c(C(F)(F)F)c(F)c2)C(=O)N2C[C@H](OCC)C[C@H]2C(=O)NC2(CCC2)C(=O)N(C)[C@@H](C2CCCC2)C(=O)N1C [PP1702] | 0.085 | A (a compound having 10 or more and less than 20 is denoted as A) | A (a compound having 10 or more and less than 20 is denoted as A) | 4.9
7 | C#CC[C@H]1C(=O)N[C@@H]([C@@H](C)CC)C(=O)N(C)CC(=O)N(C)[C@H]2C/C=C\CCN(C2=O)[C@@H](Cc2ccc(C(F)(F)F)cc2)C(=O)N(C)CC(=O)N[C@@H](CCc2cc(F)c(C(F)(F)F)c(F)c2)C(=O)N2C[C@H](OCC)C[C@H]2C(=O)NC2(CCC2)C(=O)N(C)[C@@H](C2CCCC2)C(=O)N(C)[C@H](C(=O)N(C)CCC)CC(=O)N1C [PP1703] | 0.13 | A (a compound having 10 or more and less than 20 is denoted as A) | A (a compound having 10 or more and less than 20 is denoted as A) | 7.2
8 | CCCC[C@H]1C(=O)N[C@@H]([C@@H](C)CC)C(=O)N(C)CC(=O)N(C)[C@H]2C/C=C\CCN(C2=O)[C@@H](Cc2ccc(C(F)(F)F)cc2)C(=O)N(C)CC(=O)N[C@@H](CCc2cc(F)c(C(F)(F)F)c(F)c2)C(=O)N2C[C@H](OCC)C[C@H]2C(=O)NC2(CCC2)C(=O)N(C)[C@@H](C2CCCC2)C(=O)N(C)[C@H](C(=O)N(C)CCC)CC(=O)N1C [PP1704] | 0.14 | A (a compound having 10 or more and less than 20 is denoted as A) | A (a compound having 10 or more and less than 20 is denoted as A) | 10.3
9 | CCCN(C)C(=O)[C@@H]1CC(=O)N(C)[C@@H](CC2CCC2)C(=O)N[C@@H]([C@@H](C)CC)C(=O)N(C)CC(=O)N(C)[C@H]2C/C=C\CCN(C2=O)[C@@H](Cc2ccc(C(F)(F)F)cc2)C(=O)N(C)CC(=O)N[C@@H](CCc2cc(F)c(C(F)(F)F)c(F)c2)C(=O)N2C[C@H](OCC)C[C@H]2C(=O)NC2(CCC2)C(=O)N(C)[C@@H](C2CCCC2)C(=O)N1C [PP1705] | 0.14 | AA (a compound having 20 or more is denoted as AA) | A (a compound having 10 or more and less than 20 is denoted as A) | 8
10 | CCCN(C)C(=O)[C@@H]1CC(=O)N(C)[C@@H](COC)C(=O)N[C@@H]([C@@H](C)CC)C(=O)N(C)CC(=O)N(C)[C@H]2C/C=C\CCN(C2=O)[C@@H](Cc2ccc(C(F)(F)F)cc2)C(=O)N(C)CC(=O)N[C@@H](CCc2cc(F)c(C(F)(F)F)c(F)c2)C(=O)N2C[C@H](OCC)C[C@H]2C(=O)NC2(CCC2)C(=O)N(C)[C@@H](C2CCCC2)C(=O)N1C [PP1706] | 0.075 | A (a compound having 10 or more and less than 20 is denoted as A) | A (a compound having 10 or more and less than 20 is denoted as A) | 6.7
11 | CC[C@H](C)[C@@H]1NC(=O)[C@H](C)N(C)C(=O)C[C@@H](C(=O)N(C)C)N(C)C(=O)[C@H](C2CCCC2)N(C)C(=O)C2(CC(C)(C)C2)NC(=O)[C@@H]2CC(F)(F)CN2C(=O)[C@H](CCc2cc(F)c(C(F)(F)F)c(F)c2)NC(=O)CN(C)C(=O)[C@H](Cc2ccc(C(F)(F)F)cc2)N2CC/C=C\C[C@@H](C2=O)N(C)C(=O)CN(C)C1=O [PP1707] | 0.037 | AA (a compound having 20 or more is denoted as AA) | A (a compound having 10 or more and less than 20 is denoted as A) | 7.4
12 | CC[C@H](C)[C@@H]1NC(=O)[C@H](CC(F)F)N(C)C(=O)C[C@@H](C(=O)N(C)C)N(C)C(=O)[C@H](C2CCCC2)N(C)C(=O)C2(CC(C)(C)C2)NC(=O)[C@@H]2CC(F)(F)CN2C(=O)[C@H](CCc2cc(F)c(C(F)(F)F)c(F)c2)NC(=O)CN(C)C(=O)[C@H](Cc2ccc(C(F)(F)F)cc2)N2CC/C=C\C[C@@H](C2=O)N(C)C(=O)CN(C)C1=O [PP1709] | 0.058 | A (a compound having 10 or more and less than 20 is denoted as A) | A (a compound having 10 or more and less than 20 is denoted as A) | 3.8
13 | CC[C@H](C)[C@@H]1NC(=O)[C@H](CC(F)(F)F)N(C)C(=O)C[C@@H](C(=O)N(C)C)N(C)C(=O)[C@H](C2CCCC2)N(C)C(=O)C2(CC(C)(C)C2)NC(=O)[C@@H]2CC(F)(F)CN2C(=O)[C@H](CCc2cc(F)c(C(F)(F)F)c(F)c2)NC(=O)CN(C)C(=O)[C@H](Cc2ccc(C(F)(F)F)cc2)N2CC/C=C\C[C@@H](C2=O)N(C)C(=O)CN(C)C1=O [PP1710] | 0.1 | A (a compound having 10 or more and less than 20 is denoted as A) | B (a compound having 3 or more and less than 10 is denoted as B) | 4.1
14 | CCC[C@H]1C(=O)N[C@@H]([C@@H](C)CC)C(=O)N(C)CC(=O)N(C)[C@H]2C/C=C\CCN(C2=O)[C@@H](Cc2ccc(C(F)(F)F)cc2)C(=O)N(C)CC(=O)N[C@@H](CCc2cc(F)c(C(F)(F)F)c(F)c2)C(=O)N2CC(F)(F)C[C@H]2C(=O)NC2(CC(C)(C)C2)C(=O)N(C)[C@@H](C2CCCC2)C(=O)N(C)[C@H](C(=O)N(C)C)CC(=O)N1C [PP1711] | 0.093 | A (a compound having 10 or more and less than 20 is denoted as A) | B (a compound having 3 or more and less than 10 is denoted as B) | 5
15 | CC[C@H](C)[C@@H]1NC(=O)[C@H](CC2CC2)N(C)C(=O)C[C@@H](C(=O)N(C)C)N(C)C(=O)[C@H](C2CCCC2)N(C)C(=O)C2(CC(C)(C)C2)NC(=O)[C@@H]2CC(F)(F)CN2C(=O)[C@H](CCc2cc(F)c(C(F)(F)F)c(F)c2)NC(=O)CN(C)C(=O)[C@H](Cc2ccc(C(F)(F)F)cc2)N2CC/C=C\C[C@@H](C2=O)N(C)C(=O)CN(C)C1=O [PP1713] | 0.096 | A (a compound having 10 or more and less than 20 is denoted as A) | A (a compound having 10 or more and less than 20 is denoted as A) | 7.9

From patent publication US20240158446A1, “CYCLIC COMPOUND HAVING SELECTIVE INHIBITORY ACTION ON KRAS OVER HRAS AND NRAS” (CHUGAI SEIYAKU KABUSHIKI KAISHA, priority 2021, published 2024)
